From US20150072416A1, “METABOLITE FOR IMPROVING PRODUCTION, MAINTENANCE AND PROLIFERATION OF PLURIPOTENT STEM CELLS, COMPOSITION COMPRISING THE SAME, AND METHOD OF CULTURING PLURIPOTENT STEM CELL USING THE SAME” (KOREA RESEARCH INSTITUTE OF BIOSCIENCE AND BIOTENOLOGY, priority 2012, published 2015)

Experiments:
[1] = system: H9 human embryonic stem cells; experiment: Mitochondrial membrane potential of human embryonic stem cells by JC-1 staining; format: cell-based; conditions: 0.1 mM nicotinamide in mTeSR1
Experimental: In an example of the present invention, the membrane potential (ΔΨm) of mitochondria was measured after treatment with nicotinamide. When human embryonic stem cells were maintained and cultured, the membrane potential of mitochondria in the human embryonic stem cells was measured by JC-1 staining after addition of various concentrations of nicotinamide to mTeSR1. After JC-1 staining, activated mitochondria are stained with red, and non-activated mitochondria are stained with green. The ratio of the number of red-stained mitochondria to the number of green-stained mitochondria is measured, and an increase in the ratio indicates an increase in activated mitochondria.
In addition, the present inventors measured the membrane potential (ΔΨm) of mitochondria. When human embryonic stem cells were maintained and cultured, various concentrations of nicotinamide were added to mTeSR1, and then the mitochondrial membrane potential of the human embryonic stem cells was measured by JC-1 staining. After JC-1 staining, activated mitochondria are stained with red, and non-activated mitochondria are stained with green. The ratio of the number of red-stained mitochondria to the number of green-stained mitochondria is measured, and an increase in the ratio indicates an increase in the number of activated mitochondria.

p53, p21 and p16 = experiment: Expression of senescence-associated signaling factors (immunostaining, Western blot, real-time PCR); format: cell-based, human
Experimental: Total RNA was isolated from produced cells using an RNeasy Mini kit (Qiagen, Valencia, Calif.) and reverse-transcribed using a SuperScript First-strand synthesis system kit (Invitrogen) according to the manufacturer's instruction. Then, semi-quantitative RT-PCR was performed using a platinum Tag SuperMix kit (Invitrogen) under the following conditions: 94° C. for 3 minutes, and then 25-30 cycles, each consisting of 94° C. for 30 sec, 60° C. for 30 sec and 72° C. for 30 sec, followed by extension at 72° C. for 10 minutes.
For immunostaining, cells were seeded on Matrigel-coated 4-well Lab-Tek chamber slides (Nunc, Naperville, Ill.) and cultured for 5 days under the indicated conditions. […]
Cells were lysed with RIPA buffer (containing 50 mM Tris, pH 8.0, 150 mM NaCl, 1% NP-40, 0.1% SDS, 0.5% deoxycholic acid, 1 mM PMSF) and mixed with a protease inhibitor (Roche Applied Science, Indianapolis, Ind.) on ice for 15 minutes, followed by centrifugation at 20,000×g at 4° C. for 10 minutes. The supernatant was re-centrifuged for 10 minutes, and the protein concentration was measured using a BCA protein assay kit (Pierce, Rockford, Ill.). […] The density of the bands was analyzed using Image Gauge software (Fuji Photo Film GMBH, D) and normalized to the bands of the loading control (β-actin). […]

[2] = system: human fibroblasts transfected with reprogramming factor OSKM; experiment: Quantification of protein damage caused by oxidative stress; format: cell-based; conditions: 1 mM
Experimental: On days 12, 19 and 26 of induction of reprogramming, protein was isolated from a control group and a nicotinamide-treated group (Nam), after which it was quantified and treated with 2,4-dinitrophenylhydrazine to expose the carbonyl group. The protein was separated according to molecular weight using 10% SDS-polyacrylamide gel, and then protein damage caused by oxidative stress was analyzed using dinitrophenyl antibody. After normalization to the expression level of β-actin, the degree of damage was quantified relative to the degree of damage to hFFs taken as 1.

[3] = system: human fibroblasts transfected with reprogramming factor OSKM; experiment: Mitochondrial membrane potential during reprogramming (JC-1, flow cytometry); format: cell-based; conditions: 1 mM
Experimental: At different time points of reprogramming, the cells of a control group and a nicotinamide-treated group (Nam) were dissociated with single cells by trypsin, and then stained with JC-1 (5,5′,6,6′-tetraachloro-1,1′,3,3′-tetraethylbenzimidazolocarbocyanine iodide) solution at 37° C. for 15 minutes. After washing, the degree of fluorescence staining was measured by flow cytometry, relative mitochondrial membrane potential was quantified by the red/green ratio.

[4] = system: H9 human embryonic stem cells and human induced pluripotent stem cells; experiment: Low-density cloning after single-cell dissociation (AP staining, apoptosis); format: cell-based; conditions: AP staining and apoptosis assays
Experimental: (§1) In order to examine the effect of nicotinamide on a reduction in the apoptosis of human pluripotent stem cells, dual apoptosis assay (Biotium, Hayward, Calif.) was performed. Embryonic stem cells or cells reprogrammed were stained with NucView™488 Caspase-3 Substrate (green)/Annextin V (red) at room temperature for 30 minutes, followed by washing with PBS. At least 4 sections of each sample were imaged with an Olympus fluorescence microscope (IX51, Olympus), and the number of cells stained with green (Caspase-3) was counted to quantify the degree of apoptosis.
In order to examine the effect of nicotinamide on the survival of human pluripotent stem cells at low density, human pluripotent stem cells were treated with TrypLE reagent (Invitrogen) for 3 minutes, and then dissociated into single cells by pipetting and seeded on a Matrigel-coated 96-well plate at a density of 500 cells per well. After 5 days of culture, human pluripotent stem cell colonies started to be formed, and the cells were fixed with 4% paraformaldehyde, and then AP staining was performed or the level of apoptosis was measured.

embryonic stem cells = experiment: Embryonic stem cells treated with NAD+ synthesis inhibitor FK866 and NAD precursors (NAD level, AP activity, apoptosis); format: cell-based, human; conditions: co-treatment with FK866; also in mTeSR1-CDM
Experimental: Embryonic stem cells were treated with nicotinamide and related compounds, and after 6 days, protein was isolated from the cells. NAD cycling enzyme was added to and reacted with 20 μg of the protein per each group at room temperature for 5 minutes, and then a NADH developer was added and reacted therewith for 2-3 hours. The absorbance at 450 nm was measured using a microplate reader, and the amount of the […] was quantified.
AP staining was performed using a commercial AP kit (Sigma) according to the manufacturer's instruction. Images of AP-positive cells were recorded with HP Scanjet G4010. Also, bight field images were obtained with an Olympus microscope (IX51, Olympus, Japan).
as §1

NC(=O)c1cccnc1 [nicotinamide]
number of activated mitochondria / mitochondrial membrane potential (JC-1 red/green) [1]: significantly increased
mRNA and protein expression levels of p53, p21 and p16 (p53, p21 and p16; 1 mM, reprogramming process): significantly decreased
inhibition of expression of senescence factors p53, p27, p21 and p16 (p53, p21 and p16; high concentration (20 mM)): did not appear
amount of damaged protein (oxidative stress) [2]: decreased
membrane potential of mitochondria in reprogramming conditions [3]: the membrane potential was maintained
survival and self-renewal abilities at low density after single-cell dissociation [4]: significantly increased
recovery from damage caused by FK866 (embryonic stem cells): recovered
